# Results published in paper PMC6071143, “(−)-Homosalinosporamide A and Its Mode of Proteasome Inhibition: An X-ray Crystallographic Study” (Marine Drugs, 2018).
# Where two headings read alike, the source gives them in different places.
# Assays:
# [1] = tested on: chymotrypsin-like activity of the proteasome; design: method as in PMID 7732382; conditions: cited from earlier work
# yeast 20S proteasome [2] = biological target: T1, yeast 20S proteasome (Saccharomyces cerevisiae, UniProt P25043+P30656+P38624); assay: X-ray crystallography of yeast 20S proteasome:ligand complex, mode of action; type: binding; conditions: yCP:homoSalA crystal structure, crystals soaked at 5 mM; no tetrahydropyran ring formation
# T1 construct: endogenous in cells; host or cells: S. cerevisiae (complex purified from yeast by a cited earlier protocol)
# Protocol: Therefore, we elucidated the yCP:homoSalA complex at molecular resolution to investigate its mode of action. Active yCP crystals were soaked with final compound concentrations of 5 mM for 24 h. Subsequently, diffraction data were recorded to 2.9 Å resolution (Table 2) and data processing, as well as structural refinement, were performed according to previous protocols. The crystallographic data were refined to a final Rfree value of 23.3% with root mean square deviation bond and angle values less than 0.007 Å and 1.1°, respectively (PDB ID 6GOP, Table 2). […] While the active site nucleophile Thr1O^γ opens the β-lactone ring, the positively charged Thr1NH3^+-terminus acts as a Brønsted acid generating a C4-hydroxyl group from the hydrolyzed β-lactone. […]
# While the electron density map offered no evidence for fluoride elimination, the complex structure determined after 24 h crystal soaking time depicts complete displacement of the leaving group. […]
# Crystals of the 20S proteasome from S. cerevisiae were grown in hanging drops at 20 °C as previously described and incubated for […] with homoSalA at 5 mM. […] Crystals were soaked in a cryoprotecting buffer (30% MPD, 20 mM of magnesium acetate, 100 mM MES (pH 6.9)) and frozen in a stream of liquid nitrogen gas at 100 K. X-ray intensities were evaluated using the XDS program package. […]
# [3] = biological target: yeast 20S proteasome, caspase-like (C-L) activity; conditions: luminogenic enzyme assay; cited from earlier work
# [4] = tested on: yeast 20S proteasome, chymotrypsin-like (ChT-L) activity; assay: luminogenic enzyme assay, chymotrypsin-like activity; type: biochemical
# Protocol: The proteasome inhibitory activity of the unnatural analog, homoSalA, was measured in a luminogenic enzyme assay in comparison to SalA enabling assessment of all three active sites of yCP.
# [5] = tested on: yeast 20S proteasome, trypsin-like (T-L) activity; conditions: luminogenic enzyme assay; cited from earlier work
# [6] = tested on: yeast 20S proteasome, chymotrypsin-like (ChT-L) activity; conditions: luminogenic enzyme assay; cited from earlier work
# yeast 20S proteasome [7] = biological target: T1, yeast 20S proteasome; conditions: cited from earlier work
# human proteasome = tested on: human proteasome; design: method as in PMID 16286248; conditions: cited from earlier work
Compound,IC50 [1],mode of action (reversibility of proteasome inhibition) (yeast 20S proteasome [2]),IC50 [3],potency towards caspase- and trypsin-like activities relative to chymotrypsin-like activity [4],IC50 [5],"ChT-L Activity 20S Proteasome (IC50, nM) [6]",IC50 [6],mode of action (reversibility of proteasome inhibition) (yeast 20S proteasome [7]; chloro-ethyl moiety forms a tetrahydrofuran ring),IC50 (human proteasome),mode of action (reversibility of proteasome inhibition) (yeast 20S proteasome [7])
"CC(C)[C@H](O)[C@@]12NC(=O)[C@H](C)[C@@H]1OC2=O [omuralide (5), omuralide]",49 nM,–,–,–,–,–,–,–,–,–
"C[C@@]12OC(=O)[C@]1([C@@H](O)[C@@H]1C=CCCC1)NC(=O)[C@@H]2CCCCl [(–)-homoSalA (3), (–)-homosalinosporamide A]",–,reversible binder,144 ± 12 nM,two orders of magnitude less potent,118 ± 28 nM,sub-nanomolar range,0.7 ± 0.04 nM,–,–,–
"C[C@@]12OC(=O)[C@]1([C@@H](O)[C@@H]1C=CCCC1)NC(=O)[C@@H]2CCCl [(–)-SalA (1), salinosporamide A]",–,–,111 ± 22 nM,–,39 ± 7 nM,sub-nanomolar range,0.8 ± 0.08 nM,irreversibly blocks the CP,1.3 nM,–
"CC[C@H]1C(=O)N[C@@]2([C@@H](O)[C@@H]3C=CCCC3)C(=O)O[C@@]12C [SalB, salinosporamide B]",–,–,–,–,–,–,–,–,–,slow reversible CP inhibitor
